Test [1] deals with Mouse preadipocyte strain 3T3-L1. The test can be described thus: Inhibition of differentiation as an indication of acetic acid uptake. The test is classed as cell-based. The note with it: control (0.01% dimethylsulfoxide) = 100%; for activity at 0.1 µM: Mus musculus, 3T3-L1, 0.1 μM test substance, read-out: Rate of Uptake (%) of [2-14C] acetic acid; for Rate of Uptake (%) of [2-14C] acetic acid: 0.1 μM test substance. The method in brief:
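Confluent 3T3-L1 cells induced to differentiate for 4 days (insulin, IBMX, dexamethasone, 5% FBS) with test compound at 0.1 μM final or 0.01% DMSO, then 2 days in insulin maintenance medium, at 37 °C, 10% CO2. [2-14C]acetic acid uptake over 1 hr counted by scintillation; expressed as % of DMSO control.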

Test [2] concerns human colon cancer cells COL-2-JCK. The test can be described thus: Inhibition of colony forming activity in human colon cancer cells. The test is classed as cell-based. The note with it: 1 μM test compound, 10 days, sum of colony areas vs control; for inhibition at 1 µM: Homo sapiens, 240 h, read-out: Inhibition Rate (%) against the colony forming activity. The method, then:
For the medium to culture the human colon cancer cells, D-MEM/F-12 medium containing inactivated bovine fetal serum at a concentration of 10% (GIBCO) was used. The human colon cancer cells COL-2-JCK (purchased from Institute for Experimental Animals) grown in mass formation in a plastic dish for the cell culture with an inner diameter of 100 mm were stripped off from the dish by using EDTA (ethylenediaminetetraacetic acid) and 0.05% trypsin solution. Then, a cell dilution solution was prepared at a concentration of 100 cells/mL solution which was diluted with the medium (D-MEM/F-12).
Three (3) mL of the cell solution were inoculated in each well of a 6-well plastic plate (300 cells/well). The test compound that was dissolved in DMSO solution so as to be a final concentration of 1 μM of the test compound and that of DMSO solution of 0.1% was added to each well. DMSO solution alone was added into the well for the control so as to be a final concentration of 0.1%.
The cells in each well were cultured for 10 days at 37° C. in the presence of 5% CO2. After the culturing was finalised, each well was washed once with Dulbecco-phosphate-buffer-saline solution (bivalent anion). Then, 1.5 ml of neutral buffered formalin solution containing 0.02% crystal violet was added to each well and the plate was kept stationary for 5 min for fixation and staining the cells. After fixation and staining, the cells were washed with water and were air-dried. Then the sum of the colony area (mm^2) of the stained cancer cells was calculated by using an image analyzer PCA-11 (SystemScience). From the calculated values, the inhibition rate (%) of the compound against the colony forming activity was obtained based on the following equation.
Inhibition Rate (%) against the colony forming activity=(1−A/B)×100
A: Sum of Colony Areas in the Group Treated with 1 μM of the Test Compound
B: Sum of Colony Areas in the Control Group

Another test deals with T1, human PPAR γ 2 (Homo sapiens, UniProt P37231).
T1 construct: expressed in transfected cells; host or cells: human osteosarcoma MG63, transiently co-transfected with pSG5-hPPARg and the reporter pGV-P2-PPRE
T1 sequence (P37231 1-505): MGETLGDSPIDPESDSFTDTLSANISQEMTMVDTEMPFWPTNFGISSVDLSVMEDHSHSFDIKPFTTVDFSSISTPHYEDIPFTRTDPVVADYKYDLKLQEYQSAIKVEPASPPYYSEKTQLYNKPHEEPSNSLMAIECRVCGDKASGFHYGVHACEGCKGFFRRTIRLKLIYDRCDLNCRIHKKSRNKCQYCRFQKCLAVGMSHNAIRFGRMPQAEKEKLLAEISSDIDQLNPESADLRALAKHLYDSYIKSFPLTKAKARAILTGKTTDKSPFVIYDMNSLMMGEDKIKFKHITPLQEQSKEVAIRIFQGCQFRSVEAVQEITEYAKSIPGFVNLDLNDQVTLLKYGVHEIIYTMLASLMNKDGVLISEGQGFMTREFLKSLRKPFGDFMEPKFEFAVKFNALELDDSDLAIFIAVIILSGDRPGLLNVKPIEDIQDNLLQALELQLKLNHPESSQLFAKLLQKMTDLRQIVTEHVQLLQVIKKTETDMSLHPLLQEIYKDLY
Nature of the test: PPAR γ transcriptional activity, luciferase reporter, test compound alone. The test is classed as cell-based. The note with it: concentration indicating Emax/2, MG63 cells transfected with pSG5-hPPARg and pGV-P2-PPRE, 24 hr. The method, then: The primers of the polymerase chain reaction (hereinafter “PCR”) were designed according to the gene sequence of human PPAR γ 2 (GenBANK accession No. D83233). In order to insert the genes into the BamHI site of the plasmid pSG5 ([…] CLONING SYSTEMS), Bgl II sites were added upstream and downstream of the genes encoding human PPAR γ 2 protein. For this, 2 kinds of polynucleotides shown in the sequence numbers 1 and 2 in the sequence table described below (hereinafter “S1” and “AS1”, respectively) were used as PCR primers.
In order to determine transcriptional activity via PPAR γ, 2 kinds of polynucleotides represented in sequence numbers 3 and 4 in the sequence table described below (hereinafter “S2” and “AS2”, respectively) were used for construction of the reporter plasmid having PPAR responsive element. The DNA fragment inserted was designed based on the gene sequence in the promoter region of rat acylCo-A oxidase (J. D. Tugwood, EMBO J., 11 (2), pp433-439 (1992)). For insertion of the DNA fragment into the reporter plasmid pGV-P2 (TOYO INK MFG CO., LTD), a NheI site and an XhoI site were added to the S2 and AS2, respectively.
Using cDNA library (Clontech) derived from human adipose tissue as a template, DNA oligomers S1 and AS1 that were synthesized in the procedure 1 as primers and Ex-Taq™ (TAKARA BIO INC.) as a thermostable DNA polymerase-PCR was carried out. As a result of the PCR, the c.a. 1500 bps DNA fragments were amplified. Each cycle consisted of incubation at 94° C. for 1 min for denaturation of the template, then at 55° C. for 30 sec for annealing of DNA oligomers the PCR primer, and then at 72° C. for 30 sec for extension of the chain. The obtained DNA fragments with approximately 1500 base pairs were digested at the Bgl II sites and were inserted into BamHI sites of pSG5. Thus a human PPAR γ expression plasmid named pSG5-hPPAR g was obtained. The nucleotide sequence of the inserted DNA fragment was confirmed to be identical sequence to the human PPAR γ 2 reported by the dideoxy method.
Vector pGV-P2 digestion products was prepared by digestion using the restriction enzymes, NheI and XhoI, and purified by 1.0% agarose-gel electrophoresis. The DNA oligomers, S2 and AS2 obtained in Procedure 2, were mixed together and were incubated in a hot bath at 94° C. for 1 min. After the annealing was partially broken, they were further incubated at 25° C. for 1 hr. Thus double-stranded DNA with annealing of S2 and AS2 was formed. Then, the terminus of the double-stranded DNA with annealing of S2 and AS2 was phosphorylated with DNA polynucleotide kinase (TOYOBO CO., LTD). After that, it was ligated to the pGV-P2 digestion products which were prepared previously using the NheI site and XhoI site. Thus the reporter plasmid pGV-P2-PPRE was obtained.
Using the plasmid obtained by the procedures 3 and 4, transformation of Escherichia coli HB-101 strain was carried out by conventional methods. HB-101 strain having the plasmid was incubated in L-broth medium (containing 10 g of trypton (Difco), 5 g of yeast extract (Difco), 5 g of sodium chloride in 1 L of aqueous solution) containing 100 μg/ml of ampicillin at 37° C. for 17 hrs. Then, each plasmid was purified by the alkaline-SDS method and employed for the gene transfection to mammalian cells. After mixing the pSG5-hPPARg, PGV-P2-PPRE and LipofectAMINE reagent (GIBCO BRL), the human osteosarcoma MG63 was transiently transfected. Then the cells were recovered. The recovered cells were plated on a 96-well plate so as to be 30,000 cells/well and cultured in a CO2 incubator (NAPCO) at 37° C. for 24 hr under the condition of 5% CO2, 95%-RH.
Various concentrations of the test compound alone were added to culturing medium of the cells prepared in the Procedure 5. After 24 hr of culturing, LT2.0 (TOYO INK MFG CO., LTD), a luciferase substrate, was added to the medium free culture plate. […]

The subject of the next test is leptin production. The test can be described thus: Enhancing activity for leptin production in adipocytes (ELISA). The test is classed as cell-based, rat. The note with it: 24 hr, leptin concentration as % of control group. The method in brief:
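Collagenase-dispersed epididymal adipocytes from 6-week-old male Wistar Imamichi rats, cultured in DMEM/F-12 (1:1) with test compound at final 1 µM, 100 nM, 10 nM or 1 nM (0.1% DMSO) for 24 h at 37 °C, 5% CO2. Leptin in filtrate measured by ELISA; activity = treated/DMSO-control leptin × 100 (%).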
(In general: In an ELISA, binding on a coated surface is turned into a signal by an enzyme label.)

The next test concerns Rat white adipocytes. Nature of the test: Inhibition of the differentiation of adipocytes (Oil Red O). The test is classed as cell-based. The note with it: Rattus norvegicus, Adipocyte, 120 h, 100 nM test compound; 5 days; Oil Red O ABS550; control = 100%, blank = 0%; Table 3; read-out: Rate of Differentiation (%). In a few lines: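 Rat white preadipocytes, 5,000 cells/well, given differentiation medium with compound at 100 nM final (0.1% DMSO) for 5 days at 37 °C. Lipid stained with Oil Red O, eluted in DMSO, read at 550 nm; differentiation % relative to DMSO control (100%) and blank (0%).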

Experimental findings from US20030134859A1 (SANKYO COMPANY, LIMITED, priority 2000, published 2003) are described below.

Take `Cc1cccc(NC(=O)c2cc([N+](=O)[O-])ccc2Cl)c1` [Example 11, N-(3-Methylphenyl)-(2-chloro-5-nitrophenyl)carboxamide]: the activity at 0.1 µM in test [1] was determined as 67.3%. Also, the inhibition at 1 µM in test [2] is 15%.

Consider `CC(C)(C)OC(=O)Nc1ccc(NC(=O)c2cc([N+](=O)[O-])ccc2Cl)cc1` [Example 45, N-[4-(tert-Butyloxycarbonylaminophenyl)]-(2-chloro-5 nitrophenyl)carboxamide], for which, in test [1], the “Rate of Uptake (%) of [2-14C] acetic acid” value is listed as 68.9%. Further, the “Inhibition Rate (%) against the colony forming activity” value in test [2] was 32.0%.

On to `Cc1cnc(NC(=O)c2cc([N+](=O)[O-])ccc2Cl)c(C)c1` [Example 74, N-(3,5-Dimethylpyriridin-2-yl)-(2-chloro-5-nitrophenyl)carboxamide], for which the “Rate of Uptake (%) of [2-14C] acetic acid” value in test [1] is given as 70.4%. This compound also came in with an EC50 at human PPAR γ 2 of 5.1 nM.

As for `COC(=O)c1cscc1NC(=O)c1cc([N+](=O)[O-])ccc1Cl` [Example 76, N-(4-Methoxycarbonylthiophen-3-yl)-(2-chloro-5-nitrophenyl)carboxamide], the activity at 0.1 µM in test [1] was found to be 54.3%. On human PPAR γ 2, this compound came in with an EC50 of 120 nM.

With `CCOC(=O)c1c(NC(=O)c2cc([N+](=O)[O-])ccc2Cl)sc2c1CCCC2` [Example 79, N-[3-Carboethoxy-4,5,6,7-tetrahydrobenzo[b]thiophen-2-yl]-(2-chloro-5-nitrophenyl)carboxamide], the activity at 0.1 µM in test [1] turned out to be 41.5%. Also, the EC50 on human PPAR γ 2 worked out at 68 nM.

Turning to `Cc1cc(NS(=O)(=O)c2ccc(NC(=O)c3cc([N+](=O)[O-])ccc3Cl)cc2)nc(C)n1` [Example 98, N-[[4-(2,6-Dimethylpyrimidin-4-yl)aminosulfonyl]phenyl]-(2-chloro-5-nitrophenyl)carboxamide], in test [1], the “Rate of Uptake (%) of [2-14C] acetic acid” value was determined as 89.1%. Further, the “Inhibition Rate (%) against the colony forming activity” value in test [2] is reported as 25.0%. For the same compound, the figures for the “Facilitating activity to produce leptin” value in the test with leptin production (1 μM) and with leptin production (100 nm) were 117.0% and 110.1%, respectively.

Take `O=C(Nc1ccc(S(=O)(=O)Nc2ccccn2)cc1)c1cc([N+](=O)[O-])ccc1Cl` [Example 100, N-[4-[(Pyridin-2-yl)aminosulfonyl]phenyl]-(2-chloro-5-nitrophenyl)carboxamide]: in test [2], the inhibition at 1 µM was 50%.

For the compound `O=C(Nc1ccc(S(=O)(=O)Nc2ccc3cn[nH]c3c2)cc1)c1cc([N+](=O)[O-])ccc1Cl` [Example 103], the activity at 0.1 µM in test [1] was found to be 72.1%. Further, it took 8.8 nM to reach a half-maximal effect on human PPAR γ 2 (EC50).

As for `CCCCNC(=O)NS(=O)(=O)c1ccc(NC(=O)c2cc([N+](=O)[O-])ccc2Cl)cc1` [Example 107, N-[4-(Butylaminocarbonylaminosulfonyl)phenyl]-(2-chloro-5-nitrophenyl)carboxamide], the activity at 0.1 µM in test [1] amounted to 71.3%. The compound also yielded an EC50 on human PPAR γ 2 of 88 nM.

Regarding `COC(=O)c1cccc(NC(=O)c2cc([N+](=O)[O-])ccc2Cl)c1` [Example 143, Methyl 3-(2-chloro-5-nitrobenzoylamino)benzoate], the activity at 0.1 µM was found to be 60.1% in test [1] and 84.9% in the test on Rat white adipocytes. Also, the inhibition at 1 µM in test [2] was found to be 25%.

On to `O=C(Nc1ccc(O)cc1)c1cc([N+](=O)[O-])ccc1Cl` [Example 193, N-(4-Hydroxyphenyl)-(2-chloro-5-nitrophenyl)carboxamide], for which the activity at 0.1 µM in the test on Rat white adipocytes stood at 62.4%. For the same compound, the EC50 on human PPAR γ 2 turned out to be 31 nM.

Usually inhibition stands for the percentage by which the read-out fell short of the control. The EC50 is the concentration at which the effect is half-maximal. The low end stands for an effect from little substance, the high end for a need for much substance.
